Measured values: US6399782B1, “Benzimidazole inhibitors of fructose 1,6-bisphosphatase” (Metabasis Therapeutics, Inc., priority 1997, dated 2002)

Assays:
mouse liver FBPase = molecular target: T1, mouse liver FBPase (Mus musculus, UniProt Q9QXD6); experiment: Inhibition of mouse liver FBPase; assay type: biochemical; settings: partially purified mouse liver fraction
T1 construct: This partially purified fraction was used for enzyme assays; from tissue; host or cells: mouse liver, 45-75% ammonium sulfate fraction
T1 sequence (Q9QXD6 2-338 limits assumed): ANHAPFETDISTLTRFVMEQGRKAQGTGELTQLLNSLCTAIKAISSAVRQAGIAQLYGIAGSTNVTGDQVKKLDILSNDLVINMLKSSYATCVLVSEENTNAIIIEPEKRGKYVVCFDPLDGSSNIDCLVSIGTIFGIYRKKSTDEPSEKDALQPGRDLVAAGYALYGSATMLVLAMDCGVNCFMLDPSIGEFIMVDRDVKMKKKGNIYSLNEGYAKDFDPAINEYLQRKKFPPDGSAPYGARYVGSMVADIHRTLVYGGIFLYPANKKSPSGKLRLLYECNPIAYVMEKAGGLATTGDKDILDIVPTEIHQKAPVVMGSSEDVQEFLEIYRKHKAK
Experimental: Enzymatic activity was measured spectrophotometrically in reactions that coupled the formation of product (fructose 6-phosphate) to the reduction of dimethylthiazoldiphenyltetrazolium bromide (MTT) via NADP and phenazine methosulfate (PMS), using phosphoglucose isomerase and glucose 6-phosphate dehydrogenase as the coupling enzymes. Reaction mixtures (200 μl) were made up in 96-well microtitre plates, and consisted of 50 mM Tris-HCl, pH 7.4, 100 mM KCl, 5 mM EGTA, 2 mM MgCl2, 0.2 mM NADP, 1 mg/ml BSA, 1 mM MTT, 0.6 mM PMS, 1 unit/mL phosphoglucose isomerase, 2 units/mL glucose 6-phosphate dehydrogenase, and 0.150 mM substrate (fructose 1,6-bisphosphate). Inhibitor concentrations were varied from 0.01 μM to 10 μM.
Mouse liver FBPase was obtained by homogenizing freshly isolated mouse liver in 100 mM Tris-HCl buffer, pH 7.4, containing 1 mM EGTA, and 10% glycerol. […] This fraction was redissolved in the homogenization buffer and desalted on a PD-10 gel filtration column (Biorad) eluted with same. This partially purified fraction was used for enzyme assays. Both rat liver and mouse liver FBPase were assayed as described for human liver FBPase.

rat hepatocytes = experiment: Glucose production inhibition and fructose 1,6-bisphosphate accumulation in rat hepatocytes; assay type: cell-based
Experimental: Hepatocytes were prepared from overnight fasted Sprague-Dawley rats (250-300 g) according to the procedure of Berry and Friend (Berry, M. N., Friend, D. S., 1969, J. Cell. Biol. 43, 506-520) as modified by Groen (Groen, A. K., Sips, H. J., Vervoorn, R. C., Tager, J. M., 1982, Eur. J. Biochem. 122, 87-93). Hepatocytes (75 mg wet weight/mL) were incubated in 1 ml Krebs-bicarbonate buffer containing 10 mM Lactate, 1 mM pyruvate, 1 mg/mL BSA, and test compound concentrations from 1 to 500 μM. Incubations were carried out in a 95% oxygen, 5% carbon dioxide atmosphere in closed, 50-mL Falcon tubes submerged in a rapidly shaking water bath (37° C.). After 1 hour, an aliquot (0.25 mL) was removed, transferred to an Eppendorf tube and centrifuged. 50 μL of supernatant was then assayed for glucose content using a Sigma Glucose Oxidase kit as per the manufacturer's instructions.
Isolated rat hepatocytes were prepared as described in Example D and incubated under the identical conditions described. […] After thorough mixing and centrifugation, the supernatant was analyzed for glucose content as described in Example D, and also for fructose 1,6-bisphosphate. Fructose 1,6-bisphosphate was assayed spectrophotometrically by coupling its enzymatic conversion to glycerol 3-phosphate to the oxidation of NADH, which was monitored at 340 nm. […]

[1] = system: streptozotocin-treated Sprague-Dawley rats; experiment: Blood glucose lowering in the streptozotocin-treated rat; assay type: in vivo
Experimental: Diabetes was induced in male Sprague-Dawley rats (250-300 g) by intraperitoneal injection of 55 mg/kg streptozotocin (Sigma Chemical Co.). Six days later, 24 animals were selected with fed blood glucose values (8 am) between 350 and 600 mg/dL and divided into two statistically equivalent groups. Blood glucose was measured in blood obtained from a tall vein nick by means of a HemoCue Inc. (Mission Viejo, Calif.) glucose analyzer. […] Food was removed from the animals. Blood glucose was measured in each animal four hours after dosing, and a second dose of drug or saline was then administered. Four hours later, a final blood glucose measurement was made.

hlFBPase = molecular target: T2, hlFBPase (Homo sapiens, UniProt P09467); experiment: AMP site binding (displacement of radiolabeled AMP)
T2 construct: made in house; host or cells: E. coli BL21
T2 sequence (P09467 2-338 limits assumed): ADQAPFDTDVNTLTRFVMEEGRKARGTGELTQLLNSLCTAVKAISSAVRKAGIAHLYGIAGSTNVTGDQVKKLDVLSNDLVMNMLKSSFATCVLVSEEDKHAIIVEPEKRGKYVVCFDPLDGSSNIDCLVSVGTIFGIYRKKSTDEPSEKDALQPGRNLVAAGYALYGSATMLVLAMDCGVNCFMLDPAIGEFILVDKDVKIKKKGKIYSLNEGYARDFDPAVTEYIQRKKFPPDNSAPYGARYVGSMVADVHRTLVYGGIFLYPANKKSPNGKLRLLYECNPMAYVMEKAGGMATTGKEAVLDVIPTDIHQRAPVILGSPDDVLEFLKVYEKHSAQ
Experimental: To determine whether compounds bind to the allosteric AMP binding site of hlFBPase, the enzyme was incubated with radiolabeled AMP in the presence of a range of test compound concentrations. The reaction mixtures consisted of […] ^3H-AMP (54 mCi/mmol) and […] test compound in 25 mM Tris-HCl, pH 7.4, 100 mM KCl and 1 mM MgCl2. 1.45 mg of homogeneous FBPase (±1 nmole) was added last. After a 1 minute incubation, AMP bound to FBPase was separated from unbound AMP by means of a centrifugal ultrafiltration unit (“Ultrafree-MC”, Millipore) used according to the instructions of the manufacturer. The radioactivity in aliquots (100 μL) of the upper compartment of the unit (the retentate, which contrains enzyme and label) and the lower compartment (the filtrate, which contains unbound label) were quantified using a Beckman liquid scintillation counter. The amount of AMP bound to the enzyme was estimated by comparing the counts in the filtrate (the unbound label) to the total counts in the retentate.

Nc1c(F)ccc2c1nc(-c1ccc(P(=O)(O)O)o1)n2CC1CC1 [Compound 12.61, 4-Amino-5-fluoro-1-cyclopropylmethyl-2-(2-phosphono-5-furanyl)benzimidazole] was tested, and the IC50 (mouse liver FBPase) was > 20 µM.

CCc1cc(F)c(N)c2nc(-c3ccc(P(=O)(O)O)o3)n(CC(C)C)c12 [Compound 12.64] was tested, and the IC50 (rat hepatocytes; Hepatocyte, Example F, FIG. 5, read-out: IC50 glucose production from lactate/pyruvate) was ~3 µM, the “accumulation of fructose 1,6-bisphosphate” value (rat hepatocytes; result in words) was “dose-dependent accumulation of fructose 1,6 bisphosphate” and the “Blood glucose, mg/dl T = 8h” value ([1]; 100 mg/kg intraperitoneally at 0 and 4 h, food removed, 8 hours after the initial dose) was 271 ± 29 mg/dL. For the same compound, the “Blood glucose, mg/dl T = 0h” value ([1]; before dosing, streptozotocin-treated rats) was 488 ± 16 mg/dL.

With CCn1c(-c2ccc(P(=O)(O)O)o2)nc2c(N)cccc21 [Compound 12.1, 4-Amino-1-ethyl-2-[2-(5-phosphono)furanyl]benzimidazole] the EC50 (hlFBPase; displacement of 3H-AMP from hlFBPase, read-out: ED50 for AMP displacement) was 50 µM and the “displacement of AMP from human liver FBPase (FIG. 3)” value (hlFBPase; result in words) was “displaced AMP from human liver FBPase in a dose dependent manner”.
